Test results reported in patent US5216003A, “Diacid-containing benzimidazole compounds for treatment of neurotoxic injury” (G. D. Searle & Co., priority 1992, dated 1993).

Columns and labels:
[1] = test system: NMDA receptor (rat brain hippocampal tissue); conditions: evaluation of CPP binding to rat brain hippocampal tissue; Murphy et al 1987; cited from earlier work
[2] = biological target: NMDA receptor (N-methyl-D-aspartate-specific L-[3H]glutamate recognition site in synaptic plasma membranes); assay: NMDA-Selective Glutamate Binding Assay, L-[3H]glutamate; parameters: species or system rat; conditions: 12.5 nM L-[3H]glutamate, pH 7.4, 0-4 °C, 10 min; read-out: [3H]GLU Ki
Description: (§1) Synaptic plasma membranes (SPM) were prepared as previously described [Monahan, J. B. and Michel, J., "Identification and Characterization of an N-methyl-D-aspartate-specific L[^3 H]glutamate Recognition Site in Synaptic Plasma Membranes", J. Neurochem., 48, 1699-1708 (1987)]. The SPM were stored at a concentration of 10-15 mg/ml in 0.32M sucrose, 0.5 mM EDTA, 1 mM MgSO4, 5 mM Tris/SO4, pH 7.4, under liquid nitrogen. The identity and purity of the subcellular fractions were confirmed by both electron microscopy and marker enzymes. Protein concentrations were determined by using a modification of the method of Lowry [Ohnishi, S. T. and Barr, J. K., "A Simplified Method of Quantitating Proteins Using the Biuret and Phenol Reagents", Anal. Biochem., 86, 193-197 (1978)]. The SPM were treated identically for the [^3 H]AMPA (QUIS), [^3 H]kainate and sodium-dependent L-[^3 H]-glumatate binding assays. […] Beckman MP scintillation cocktail containing 7 mL/l acetic acid was then added and the samples counted on a Beckman LS 5800 or 3801 liquid scintillation counter with automatic corrections for quenching and counting efficiency. […] Radioligand binding to the synaptic plasma membranes was analyzed using Scatchard and Hill transformations and the Ki values of the compounds determined using logit-log transformations. […]

[3] = biological target: [3H]MK-801 binding in rat SPM; assay: [3H]MK-801 Binding assay; conditions: 5.0 nM [3H]MK-801, 10.0 nM L-glutamate, pH 7.4, 25 °C, 30 min
Description: Modulation of [^3 H]MK-801 binding was performed using Triton X-100 (0.04% v/v) treated rat SPM that had been extensively washed. Assay incubations were at 25° C. for 30 min. and contained 5.0 nM [^3 H]MK-801, L-glutamate (10.0 nM), and various concentrations of the tested compound in 50 mM Tris/acetate, pH 7.4. The assay was stopped by rapid filtration, using Brandel MB-48 Harvester, through Whatman GF/B filters treated with 0.05% polyethylenimine and the samples washed four times with 2.0 mL cold buffer. The radioactivity associated with the filter was determined by liquid scintillation spectrometry. Nonspecific binding was defined using 60 μM MK-801. IC50 were determined using a logit-log transformation of the binding data.

[4] = test system: pyramidal cells in CA1 of the hippocampus; assay: Forebrain Ischemia Assay (bilateral carotid occlusion, neuron count); format: in vivo, Mongolian gerbil; conditions: for # of Neurons/Field: 7 days
Description: This assay was used to determine the extent of protection afforded by compound of the invention to neural brain cells subjected to ischemic conditions. Male Mongolian gerbils, 50-70 gm, were used as subjects. Compound Example #1 was injected i.p. 30 minutes prior to carotid occlusion into 6 gerbils […]. In preparation for surgical procedures, the animals were lightly anesthetized with methoxyflurane and placed upside down on a heated pad with their snout within a nosecone. A 70:30 mixture of nitrous oxide and oxygen containing 0.5% halothane was circulated through the nosecone to provide continuous anesthesia throughout the surgical procedure. A midline incision was made in the neck and the carotid arteries were exposed. A length of suture thread was placed under each carotid. The thread was then tightened around each carotid and pressure applied to the thread to insure flow was occluded. Flow was occluded for 4-5 minutes and then the thread was removed. The carotids were visually inspected to confirm that reflow had occurred. The wound was then closed with autoclips and the gerbils allowed to recover. Following surgery, the gerbils were kept alive for 7 days. They were anesthetized with 100 mg/kg sodium pentobarbital and perfused transcardially with saline (with heparin) followed by buffered formalin. The brain was removed, trimmed and prepared for histological processing. Sections (10 microns) were stained with thionin. At 7 days following this type of transient global forebrain ischemia, damaged neurons in the vulnerable CAl region of the hippocampus have degenerated and been cleared away by glia. Quantification of the resulting lesion is made by counting the pyramidal cell somata in a 0.5 mm length of CAl of the hippocampus on the section corresponding to P 1.7 mm in the gerbil brain atlas. […] The effects of compound of Ex. #1 were assessed by comparing the number of neural cells found in the hippocampus of subjects treated with Ex. #1 compound with the cell number found in the appropriate control groups. […]

motor function = assay: inverted screen test for motor impairment; format: in vivo, male CD-1 mice; conditions: for Exhibiting Motor Impairments (% of Mice): 56 mg/kg s.c., n = 10, vehicle 10 (n = 20)
Description: This assay was used to determine the extent of in vivo protection against convulsions afforded by compound of the invention to mice subjected to artifically-induced convulsive conditions. Naive male CD-l mice (20-30 grams body weight) from Charles River Laboratories, Portage Mich. served as subjects. The mice had ad libitum access to food and water prior to testing and were maintained on a 12 hour light/12 hour dark schedule with testing during the light portion of the cycle. The mice were tested for motor impairment by use of the inverted screen test approximately 5 minutes prior to anticonvulsant testing. The inverted screen apparatus was similar to that described by Coughenour et al [Pharmacol. Biochem. Behav., 6, 351-353 (1977)]. Mice were placed on 13×13 cm pieces of #4 wire mesh screen which were mounted horizontally. The screens were then slowly inverted. […] Tonic hindlimb extensor seizures were then produced by application of electroconvulsive shock through concave electrodes to the eyeballs. Both the eyeballs and the electrodes were moistened with 0.9% saline to improve conductivity. The ECS stimulus was generated by use of a Grass model S48D stimulator with a Grass model CCUlA constant current unit in series with the output. Stimulation consisted of 10 msec pulses of a 60 pps single phase square wave for a duration of 200 msec. The current was held constant at 15 mA. Compound of Example #1 was suspended in a vehicle of 0.9% saline with a few drops of PG-Tween added. PG-Tween is a 1:1 mixture of propylene glycol and Tween 80. The Example #1 compound or vehicle was administered s.c. in a volume of 10 ml/kg body weight 30 minutes prior to application of the ECS stimulus. […] There were 10 mice in each treatment group.

[5] = test system: tonic hindlimb extensor seizures; assay: Anticonvulsant Assay (electroconvulsive shock); format: in vivo, male CD-1 mice; conditions: 30 min prior to ECS; for Protected from ECS (% of Mice): 56 mg/kg s.c., n = 10, vehicle 5 (n = 20)
Kainate (KA) receptor = assay: [3H]kainate (KA) binding assay on synaptic plasma membranes; parameters: species or system rat; conditions: 0.5 nM [3H]kainate, pH 7.4, 0-4 °C, 60 min
Description: as §1

Structure (SMILES)	NMDA antagonism [1]	Ki [2]	Ki [3]	# of Neurons/Field ([4]; 300 mg/kg i.p. 30 min prior to carotid occlusion, control 19.8, p < 0.01)	# of Neurons/Field ([4]; 500 mg/kg i.p. 30 min prior to carotid occlusion, control 39.8, p < 0.005)	cell loss ([4]; i.p., 300 and 500 mg/kg, vs control, Mann-Whitney U test)	Exhibiting Motor Impairments (% of Mice) (motor function; Test A)	Exhibiting Motor Impairments (% of Mice) (motor function; Test B)	motor function (motor function; s.c., similar dose range as anticonvulsant effect)	Protected from ECS (% of Mice) ([5]; Test A)	Protected from ECS (% of Mice) ([5]; Test B)	protection against tonic hindlimb extensor seizures ([5]; s.c.)	KA Ki (Kainate (KA) receptor)
O=C(O)C1CN(CCCP(=O)(O)O)CCN1 (stereo not shown) [CPP, 3-(2-carboxypiperazin-4-yl)propyl-1-phosphonic acid]	potent and selective NMDA antagonist												
O=C(O)c1nc2cccc(CP(=O)(O)O)c2[nH]1 [Example 1, 2-carboxy-4-phosphonomethylbenzimidazole]		1.6 µM	3.9 µM	44.3 # of Neurons/Field	137.4 # of Neurons/Field	significantly reduced	10 % of Mice	0 % of Mice	impaired motor function in a similar dose range	50 % of Mice	20 % of Mice	protected against tonic hindlimb extensor seizures in a dose-dependent fashion	> 100 µM
